Measured values published in PubChem BioAssay AID1963967 (Molecular Pharmacology Branch, DTP, NCI, 2024).

System: 855422-203-R-J1-PDC spheroids with HUVEC/MSC, viability
Assay: Anticancer human tumor 855422-203-R-J1-PDC patient-derived bladder carcinoma cell line growth inhibition [PI3K]
Details: for IC50: curve of first compound; for viability, T/C: stronger effect = lower value
Method in brief: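 Spheroid viability read-out. Co-cultures contained the tumor line plus HUVEC and human MSCs. Each agent was paired with a PI3K inhibitor (inavolisib, alpelisib, duvelisib, copanlisib) across half-log dilutions starting at clinical Cmax, or at 10 microM when Cmax was unknown.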

[1] = second compound 0.00316 µM, first compound 0.0316 µM
[2] = second compound 0.00316 µM, first compound 0.1 µM
[3] = second compound 0.00316 µM, first compound 0.316 µM
[4] = second compound 0.00316 µM, first compound 1 µM
[5] = second compound 0.01 µM, first compound 0.0316 µM
[6] = second compound 0.01 µM, first compound 0.1 µM
[7] = second compound 0.01 µM, first compound 0.316 µM
[8] = second compound 0.01 µM, first compound 1 µM
[9] = second compound 0.0316 µM, first compound 0.0316 µM
[10] = second compound 0.0316 µM, first compound 0.1 µM
[11] = second compound 0.0316 µM, first compound 0.316 µM
[12] = second compound 0.0316 µM, first compound 1 µM
[13] = second compound 0.1 µM, first compound 0.0316 µM
[14] = second compound 0.1 µM, first compound 0.1 µM
[15] = second compound 0.1 µM, first compound 0.316 µM
[16] = second compound 0.1 µM, first compound 1 µM
[17] = second compound 0.316 µM, first compound 0.0316 µM
[18] = second compound 0.316 µM, first compound 0.1 µM
[19] = second compound 0.316 µM, first compound 0.316 µM
[20] = second compound 0.316 µM, first compound 1 µM
[21] = second compound 1 µM, first compound 0.0316 µM
[22] = second compound 1 µM, first compound 0.1 µM
[23] = second compound 1 µM, first compound 0.316 µM
[24] = second compound 1 µM, first compound 1 µM
[25] = second compound 0.0316 µM, first compound 3.16 µM
[26] = second compound 0.0316 µM, first compound 10 µM
[27] = second compound 0.1 µM, first compound 3.16 µM
[28] = second compound 0.1 µM, first compound 10 µM
[29] = second compound 0.316 µM, first compound 3.16 µM
[30] = second compound 0.316 µM, first compound 10 µM
[31] = second compound 1 µM, first compound 3.16 µM
[32] = second compound 1 µM, first compound 10 µM
[33] = second compound 3.16 µM, first compound 0.0316 µM
[34] = second compound 3.16 µM, first compound 0.1 µM
[35] = second compound 3.16 µM, first compound 0.316 µM
[36] = second compound 3.16 µM, first compound 1 µM
[37] = second compound 3.16 µM, first compound 3.16 µM
[38] = second compound 3.16 µM, first compound 10 µM
[39] = second compound 10 µM, first compound 0.0316 µM
[40] = second compound 10 µM, first compound 0.1 µM
[41] = second compound 10 µM, first compound 0.316 µM
[42] = second compound 10 µM, first compound 1 µM
[43] = second compound 10 µM, first compound 3.16 µM
[44] = second compound 10 µM, first compound 10 µM
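Note: agents incubated with spheroids for one week before read-out.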
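Throughout, for viability, T/C: 100% = DMSO vehicle-treated control wells.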

CCN1CCN(Cc2ccc(Nc3ncc(F)c(-c4cc(F)c5nc(C)n(C(C)C)c5c4)n3)nc2)CC1 + CC(Nc1ccc2c(c1)OCCn1cc(N3C(=O)OCC3C(F)F)nc1-2)C(N)=O
IC50 (second compound 0.00316 µM): > 1000 nM
IC50 (second compound 0.01 µM): 791 nM
IC50 (second compound 0.0316 µM): 277 nM
IC50 (second compound 0.1 µM): 70.7 nM
IC50 (second compound 0.316 µM): 4.29 nM
IC50 (second compound 1 µM): < 3.16 nM
viability, T/C (second compound 0.00316 µM, first compound 0.00316 µM): 111%
viability, T/C (second compound 0.00316 µM, first compound 0.01 µM): 74.3%
viability, T/C [1]: 103%
viability, T/C [2]: 74.1%
viability, T/C [3]: 66.2%
viability, T/C [4]: 56.5%
viability, T/C (second compound 0.01 µM, first compound 0.00316 µM): 102%
viability, T/C (second compound 0.01 µM, first compound 0.01 µM): 80%
viability, T/C [5]: 89.7%
viability, T/C [6]: 76%
viability, T/C [7]: 56.7%
viability, T/C [8]: 48.3%
viability, T/C (second compound 0.0316 µM, first compound 0.00316 µM): 69.1%
viability, T/C (second compound 0.0316 µM, first compound 0.01 µM): 78.3%
viability, T/C [9]: 78.3%
viability, T/C [10]: 61.7%
viability, T/C [11]: 49.7%
viability, T/C [12]: 35.4%
viability, T/C (second compound 0.1 µM, first compound 0.00316 µM): 66%
viability, T/C (second compound 0.1 µM, first compound 0.01 µM): 66.2%
viability, T/C [13]: 59.1%
viability, T/C [14]: 46.3%
viability, T/C [15]: 28.3%
viability, T/C [16]: 21%
viability, T/C (second compound 0.316 µM, first compound 0.00316 µM): 46.5%
viability, T/C (second compound 0.316 µM, first compound 0.01 µM): 52%
viability, T/C [17]: 43.1%
viability, T/C [18]: 24.4%
viability, T/C [19]: 16.4%
viability, T/C [20]: 16.1%
viability, T/C (second compound 1 µM, first compound 0.00316 µM): 33%
viability, T/C (second compound 1 µM, first compound 0.01 µM): 40.3%
viability, T/C [21]: 21.9%
viability, T/C [22]: 14.2%
viability, T/C [23]: 12.3%
viability, T/C [24]: 13.1%

CCCS(=O)(=O)Nc1ccc(F)c(C(=O)c2c[nH]c3ncc(-c4ccc(Cl)cc4)cc23)c1F + Cc1nc(NC(=O)N2CCCC2C(N)=O)sc1-c1ccnc(C(C)(C)C(F)(F)F)c1
IC50 (second compound 0.0316 µM): 3910 nM
IC50 (second compound 0.1 µM): 3900 nM
IC50 (second compound 0.316 µM): 4420 nM
IC50 (second compound 1 µM): 3530 nM
IC50 (second compound 3.16 µM): < 31.6 nM
IC50 (second compound 10 µM): < 31.6 nM
viability, T/C [9]: 97.7%
viability, T/C [10]: 89.5%
viability, T/C [11]: 109%
viability, T/C [12]: 82.5%
viability, T/C [25]: 62.3%
viability, T/C [26]: 0.1%
viability, T/C [13]: 88.2%
viability, T/C [14]: 90.2%
viability, T/C [15]: 100%
viability, T/C [16]: 90.7%
viability, T/C [27]: 61.1%
viability, T/C [28]: 0.16%
viability, T/C [17]: 86.4%
viability, T/C [18]: 87.4%
viability, T/C [19]: 99.1%
viability, T/C [20]: 85.3%
viability, T/C [29]: 70.8%
viability, T/C [30]: 0.13%
viability, T/C [21]: 71.4%
viability, T/C [22]: 74%
viability, T/C [23]: 68.9%
viability, T/C [24]: 72.8%
viability, T/C [31]: 53.6%
viability, T/C [32]: 0.11%
viability, T/C [33]: 45.3%
viability, T/C [34]: 46.2%
viability, T/C [35]: 38.4%
viability, T/C [36]: 44%
viability, T/C [37]: 25.9%
viability, T/C [38]: 0.29%
viability, T/C [39]: 25.3%
viability, T/C [40]: 17.9%
viability, T/C [41]: 23.2%
viability, T/C [42]: 23.5%
viability, T/C [43]: 13.6%
viability, T/C [44]: 0.19%

C[C@@H](NC(=O)c1ncnc(N)c1Cl)c1ncc(C(=O)Nc2cc(C(F)(F)F)c(Cl)cn2)s1 + CC(Nc1ncnc2nc[nH]c12)c1cc2cccc(Cl)c2c(=O)n1-c1ccccc1
IC50 (second compound 0.0316 µM): > 10000 nM
IC50 (second compound 0.1 µM): > 10000 nM
IC50 (second compound 0.316 µM): > 10000 nM
IC50 (second compound 1 µM): > 10000 nM
IC50 (second compound 3.16 µM): > 10000 nM
IC50 (second compound 10 µM): > 10000 nM
viability, T/C [9]: 120%
viability, T/C [10]: 109%
viability, T/C [11]: 109%
viability, T/C [12]: 116%
viability, T/C [25]: 131%
viability, T/C [26]: 117%
viability, T/C [13]: 112%
viability, T/C [14]: 100%
viability, T/C [15]: 111%
viability, T/C [16]: 114%
viability, T/C [27]: 116%
viability, T/C [28]: 133%
viability, T/C [17]: 100%
viability, T/C [18]: 115%
viability, T/C [19]: 105%
viability, T/C [20]: 103%
viability, T/C [29]: 136%
viability, T/C [30]: 109%
viability, T/C [21]: 85.2%
viability, T/C [22]: 102%
viability, T/C [23]: 101%
viability, T/C [24]: 106%
viability, T/C [31]: 120%
viability, T/C [32]: 107%
viability, T/C [33]: 94.8%
viability, T/C [34]: 108%
viability, T/C [35]: 94.3%
viability, T/C [36]: 93.3%
viability, T/C [37]: 106%
viability, T/C [38]: 82.7%
viability, T/C [39]: 82.7%
viability, T/C [40]: 75.7%
viability, T/C [41]: 93%
viability, T/C [42]: 85.6%
viability, T/C [43]: 69.6%
viability, T/C [44]: 54.4%

CC1(C)CCC(Nc2ncc(C(F)(F)F)c(-c3c[nH]c4c(P(C)(C)=O)c(C#N)ccc34)n2)CN1 (stereo not given) + CC(Nc1ncnc2nc[nH]c12)c1cc2cccc(Cl)c2c(=O)n1-c1ccccc1
IC50 (second compound 0.0316 µM): < 31.6 nM
IC50 (second compound 0.1 µM): < 31.6 nM
IC50 (second compound 0.316 µM): < 31.6 nM
IC50 (second compound 1 µM): < 31.6 nM
IC50 (second compound 3.16 µM): < 31.6 nM
IC50 (second compound 10 µM): < 31.6 nM
viability, T/C [9]: 30.3%
viability, T/C [10]: 24.1%
viability, T/C [11]: 25%
viability, T/C [12]: 26.8%
viability, T/C [25]: 28.9%
viability, T/C [26]: 3.47%
viability, T/C [13]: 27.4%
viability, T/C [14]: 25%
viability, T/C [15]: 24.6%
viability, T/C [16]: 27%
viability, T/C [27]: 30.2%
viability, T/C [28]: 5.41%
viability, T/C [17]: 27.2%
viability, T/C [18]: 24.9%
viability, T/C [19]: 23.8%
viability, T/C [20]: 27.5%
viability, T/C [29]: 31.6%
viability, T/C [30]: 4.23%
viability, T/C [21]: 24.2%
viability, T/C [22]: 28.2%
viability, T/C [23]: 27.2%
viability, T/C [24]: 26.7%
viability, T/C [31]: 26%
viability, T/C [32]: 5.15%
viability, T/C [33]: 23%
viability, T/C [34]: 23.1%
viability, T/C [35]: 24.6%
viability, T/C [36]: 23.9%
viability, T/C [37]: 26.6%
viability, T/C [38]: 2.74%
viability, T/C [39]: 23.8%
viability, T/C [40]: 21.4%
viability, T/C [41]: 18.8%
viability, T/C [42]: 23.7%
viability, T/C [43]: 18.9%
viability, T/C [44]: 1.26%

C#Cc1c(F)ccc2cc(O)cc(-c3ncc4c(N5CC6CCC(C5)N6)nc(OCC56CCCN5CC(F)C6)nc4c3F)c12 (stereo not given) + COc1c(OCCCN2CCOCC2)ccc2c3n(c(=NC(=O)c4cnc(N)nc4)nc12)CCN3
IC50 (second compound 0.00316 µM): > 10000 nM
IC50 (second compound 0.01 µM): > 10000 nM
IC50 (second compound 0.0316 µM): > 10000 nM
IC50 (second compound 0.1 µM): < 31.6 nM
IC50 (second compound 0.316 µM): < 31.6 nM
IC50 (second compound 1 µM): < 31.6 nM
viability, T/C [1]: 103%
viability, T/C [2]: 86.9%
viability, T/C [3]: 105%
viability, T/C [4]: 101%
viability, T/C (second compound 0.00316 µM, first compound 3.16 µM): 103%
viability, T/C (second compound 0.00316 µM, first compound 10 µM): 107%
viability, T/C [5]: 97.7%
viability, T/C [6]: 90.9%
viability, T/C [7]: 83.3%
viability, T/C [8]: 91%
viability, T/C (second compound 0.01 µM, first compound 3.16 µM): 92.8%
viability, T/C (second compound 0.01 µM, first compound 10 µM): 105%
viability, T/C [9]: 57.6%
viability, T/C [10]: 65.4%
viability, T/C [11]: 62.7%
viability, T/C [12]: 60%
viability, T/C [25]: 59.5%
viability, T/C [26]: 50.4%
viability, T/C [13]: 25.9%
viability, T/C [14]: 26.7%
viability, T/C [15]: 26.5%
viability, T/C [16]: 24.8%
viability, T/C [27]: 23.8%
viability, T/C [28]: 20.4%
viability, T/C [17]: 10.8%
viability, T/C [18]: 8.21%
viability, T/C [19]: 9.76%
viability, T/C [20]: 7.21%
viability, T/C [29]: 6.7%
viability, T/C [30]: 3.41%
viability, T/C [21]: 3.53%
viability, T/C [22]: 3.24%
viability, T/C [23]: 3.78%
viability, T/C [24]: 2.64%
viability, T/C [31]: 2.16%
viability, T/C [32]: 0.32%
